Source: US9133158B2, “Bicyclic dihydroisoquinoline-1-one derivatives” (Hoffmann-La Roche Inc., priority 2011, dated 2015)

Tests used:
[1] = biological target: T1, human CYP11B2 (Homo sapiens, UniProt P19099); assay: G-402 cellular enzyme assay, human CYP11B2 (aldosterone release, HTRF); type: cell-based; details: G-402 cells, 1 μM Deoxycorticosterone
T1 construct: expressed in transfected cells
T1 sequence (P19099 25-503): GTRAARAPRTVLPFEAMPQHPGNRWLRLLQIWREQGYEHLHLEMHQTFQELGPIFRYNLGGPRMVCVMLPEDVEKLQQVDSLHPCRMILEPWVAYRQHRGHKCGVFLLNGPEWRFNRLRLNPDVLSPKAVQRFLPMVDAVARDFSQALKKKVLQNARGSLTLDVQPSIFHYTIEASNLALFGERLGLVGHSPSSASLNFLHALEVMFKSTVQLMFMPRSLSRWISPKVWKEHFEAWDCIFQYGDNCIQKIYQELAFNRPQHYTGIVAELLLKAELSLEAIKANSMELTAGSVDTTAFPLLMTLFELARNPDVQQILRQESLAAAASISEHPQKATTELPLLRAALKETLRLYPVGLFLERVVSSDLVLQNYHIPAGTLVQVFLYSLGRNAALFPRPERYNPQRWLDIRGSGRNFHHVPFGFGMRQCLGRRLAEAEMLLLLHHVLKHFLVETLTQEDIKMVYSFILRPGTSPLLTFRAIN
In short: (§1)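 G-402 cells stably expressing human CYP11B1 or CYP11B2, in DMEM/F12 with 2.5% charcoal-treated FCS, were incubated 16 h with test compound and substrate (1 μM 11-deoxycortisol for CYP11B1; 1 μM deoxycorticosterone for CYP11B2). Cortisol or aldosterone in supernatant was quantified by HTRF; EC50 from 4-parameter MMF fit.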

[2] = biological target: T2, human CYP11B1 (Homo sapiens, UniProt P15538); assay: G-402 cellular enzyme assay, human CYP11B1 (cortisol release, HTRF); type: cell-based; details: G-402 cells, 1 μM Deoxycortisol
T2 construct: expressed in transfected cells
T2 sequence (P15538 25-503): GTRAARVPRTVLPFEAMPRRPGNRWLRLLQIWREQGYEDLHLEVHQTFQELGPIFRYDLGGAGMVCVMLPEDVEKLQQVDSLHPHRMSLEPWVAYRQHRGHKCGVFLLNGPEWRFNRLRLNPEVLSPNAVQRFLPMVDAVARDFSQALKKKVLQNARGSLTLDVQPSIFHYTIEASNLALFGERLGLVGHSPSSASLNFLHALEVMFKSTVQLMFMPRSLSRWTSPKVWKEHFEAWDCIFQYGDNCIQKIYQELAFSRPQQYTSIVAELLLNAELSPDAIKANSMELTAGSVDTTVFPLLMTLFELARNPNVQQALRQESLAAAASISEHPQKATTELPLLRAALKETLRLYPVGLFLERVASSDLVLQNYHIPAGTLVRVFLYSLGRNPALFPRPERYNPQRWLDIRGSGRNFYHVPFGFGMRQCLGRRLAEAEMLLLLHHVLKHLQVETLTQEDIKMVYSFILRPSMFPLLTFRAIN
In short: as §1

| EC50 [1] | EC50 [2] | Compound |
| --- | --- | --- |
| 96.5 nM | 3720 nM | O=C1c2ccc(Cl)cc2CCN1c1cncc(CO)c1 [Example 3, 6-Chloro-2-(5-hydroxymethyl-pyridin-3-yl)-3,4-dihydro-2H-isoquinolin-1-one] |
| 39.8 nM | 114 nM | O=C1c2ccc(Cl)cc2CCN1c1cncc(CN2CCC(O)C2)c1 (centres unmarked) [Example 146, 6-Chloro-2-[5-(3-hydroxy-pyrrolidin-1-ylmethyl)-pyridin-3-yl]-3,4-dihydro-2H-isoquinolin-1-one] |
| 10.5 nM | 90 nM | Cn1cc(-c2cncc(N3CCc4cc(Cl)ccc4C3=O)c2)cn1 [Example 239, 6-Chloro-2-[5-(1-methyl-1H-pyrazol-4-yl)-pyridin-3-yl]-3,4-dihydro-2H-isoquinolin-1-one] |
| 229 nM | 1350 nM | CC(C)c1nccn1Cc1cncc(N2Cc3cc(Cl)ccc3C2=O)c1 [Example 109, 5-Chloro-2-[5-(2-isopropyl-imidazol-1-ylmethyl)-pyridin-3-yl]-2,3-dihydro-isoindol-1-one] |
| 272 nM | 9760 nM | O=C1c2ccc(Cl)cc2CCN1c1cncc(O)c1 [Example 252, 6-Chloro-2-(5-hydroxy-pyridin-3-yl)-3,4-dihydro-2H-isoquinolin-1-one] |
| 14.1 nM | 300 nM | O=C1c2ccc(Cl)cc2CCN1c1cncc(CNc2cc[nH]n2)c1 [Example 262, 6-Chloro-2-{5-[(1H-pyrazol-3-ylamino)-methyl]-pyridin-3-yl}-3,4-dihydro-2H-isoquinolin-1-one] |
| 16.2 nM | 193 nM | O=C1c2ccc(Cl)cc2CN1c1cncc(N2CC[C@@H](O)C2)c1 [Example 138, 5-Chloro-2-[5-((R)-3-hydroxy-pyrrolidin-1-yl)-pyridin-3-yl]-2,3-dihydro-isoindol-1-one] |
| 204 nM | 745 nM | O=C1c2ccc(Cl)cc2CCN1c1cncc(-c2cn[nH]c2)c1 [Example 229, 6-Chloro-2-[5-(1H-pyrazol-4-yl)-pyridin-3-yl]-3,4-dihydro-2H-isoquinolin-1-one] |

Continued, compound first:

| Compound | EC50 [1] | EC50 [2] |
| --- | --- | --- |
| CC[C@@H]1c2cc(Cl)ccc2C(=O)N1c1cncc2c1CC[C@H]2NC(C)=O (single isomer, unassigned) [Example 344, (+)-N—[(R or S)-4-((R or S)-5-Chloro-3-ethyl-1-oxo-1,3-dihydro-isoindol-2-yl)-6,7-dihydro-5H-[2]pyrindin-7-yl]-acetamide] | 31.2 nM | 1500 nM |
| COc1ccc2c(n1)CCN(c1cccnc1)C2=O [Example 98, 2-Methoxy-6-pyridin-3-yl-7,8-dihydro-6H-[1,6]naphthyridin-5-one] | 227 nM | 6830 nM |
| CC1(C)c2ccc(Cl)cc2C(=O)N1c1cncc(CNS(C)(=O)=O)c1 [Example 408, N-[5-(5-Chloro-1,1-dimethyl-3-oxo-1,3-dihydro-isoindol-2-yl)-pyridin-3-ylmethyl]-methane-sulfonamide] | 923 nM | 14300 nM |
| CC[C@@H]1c2cc(Cl)ccc2C(=O)N1c1cncc2c1CC[C@H]2NS(C)(=O)=O (single isomer, unassigned) [Example 369, N-[(R or S)-4-((R or S)-5-Chloro-3-ethyl-1-oxo-1,3-dihydro-isoindol-2-yl)-6,7-dihydro-5H-[2]pyrindin-7-yl]-methanesulfonamide] | 40.3 nM | 12400 nM |
| CCC(=O)N[C@@H]1CCc2c1cncc2N1C(=O)c2ccc(Cl)cc2[C@H]1C (single isomer, unassigned) [Example 376, N-[(R or S)-4-((R or S)-5-Chloro-3-methyl-1-oxo-1,3-dihydro-isoindol-2-yl)-6,7-dihydro-5H-[2]pyrindin-7-yl]-propionamide] | 26 nM | 7960 nM |
| CC1CN(c2cncc(F)c2)C(=O)c2ccc(Cl)cc21 (centres unmarked) [Example 106, 6-Chloro-2-(5-fluoro-pyridin-3-yl)-4-methyl-3,4-dihydro-2H-isoquinolin-1-one] | 516 nM | 8560 nM |
| CC[C@H]1c2cc(Cl)ccc2C(=O)N1c1cncc2c1CC[C@H]2NS(C)(=O)=O (single isomer, unassigned) [Example 368, N-[(R or S)-4-((S or R)-5-Chloro-3-ethyl-1-oxo-1,3-dihydro-isoindol-2-yl)-6,7-dihydro-5H-[2]pyrindin-7-yl]-methanesulfonamide] | 12.1 nM | 723 nM |
| Cn1nccc1-c1cncc(N2C(=O)c3ccc(Cl)nc3C2(C)C)c1 [Example 425, 2-Chloro-7,7-dimethyl-6-[5-(2-methyl-2H-pyrazol-3-yl)-pyridin-3-yl]-6,7-dihydro-pyrrolo[3,4-b]pyridin-5-one] | 56.2 nM | 1270 nM |
| O=C1c2ccc(Cl)cc2CCN1c1cncc(Cc2cc(F)ccc2F)c1 [Example 212, 6-Chloro-2-[5-(2,5-difluoro-benzyl)-pyridin-3-yl]-3,4-dihydro-2H-isoquinolin-1-one] | 8.4 nM | 81.6 nM |
| CCS(=O)(=O)N1CCN(c2cncc(N3C(=O)c4ccc(Cl)cc4C3(C)C)c2)CC1 [Example 458, 5-Chloro-2-[5-(4-ethanesulfonyl-piperazin-1-yl)-pyridin-3-yl]-3,3-dimethyl-2,3-dihydroisoindol-1-one] | 1.7 nM | 351 nM |
| COC(=O)[C@@H]1CCCN1Cc1cncc(N2CCc3cc(Cl)ccc3C2=O)c1 [Example 84, (S)-1-[5-(6-Chloro-1-oxo-3,4-dihydro-1H-isoquinolin-2-yl)-pyridin-3-ylmethyl]-pyrrolidine-2-carboxylic acid methyl ester] | 225 nM | 4830 nM |
| CC[C@@H]1c2cc(Cl)ccc2C(=O)N1c1cncc2c1CCC[C@H]2NS(C)(=O)=O (single isomer, unassigned) [Example 347, N-[(R or S)-4-((R or S)-5-Chloro-3-ethyl-1-oxo-1,3-dihydro-isoindol-2-yl)-5,6,7,8-tetrahydro-isoquinolin-8-yl]-methanesulfonamide] | 162 nM | 22900 nM |
| CC1(C)c2nc(Cl)ccc2C(=O)N1c1cncc(CNc2cc[nH]n2)c1 [Example 383, 2-Chloro-7,7-dimethyl-6-{5-[(1H-pyrazol-3-ylamino)-methyl]-pyridin-3-yl}-6,7-dihydro-pyrrolo[3,4-b]pyridin-5-one] | 21 nM | 771 nM |
| CC[C@@H]1c2cc(Cl)ccc2C(=O)N1c1cncc2c1CCC[C@H]2NC(C)=O (single isomer, unassigned) [Example 358, N-[(R or S)-4-((R or S)-5-Chloro-3-ethyl-1-oxo-1,3-dihydro-isoindol-2-yl)-5,6,7,8-tetrahydro-isoquinolin-8-yl]-acetamide] | 5 nM | 433 nM |
| CS(=O)(=O)NCc1cncc(N2C(=O)c3cc(F)ccc3C23CC3)c1 [Example 401, N-{[5-(5′-Fluoro-3′-oxospiro [cyclopropane-1,1′-isoindol]-2′(3′H)-yl)pyridin-3-yl]methyl} methane-sulfonamide] | 360 nM | 9100 nM |
| O=C1c2ccc(Cl)cc2CCN1c1cncc(NS(=O)(=O)c2ccccc2)c1 [Example 219, N-[5-(6-Chloro-1-oxo-3,4-dihydro-1H-isoquinolin-2-yl)-pyridin-3-yl]-benzenesulfonamide] | 2220 nM | 17600 nM |
| O=C1c2ccc(Cl)cc2CCN1c1cncc(Cc2cccc(F)c2F)c1 [Example 210] | 18.6 nM | 130 nM |
